# Results: paper PMC13081163, “Discovery of a novel Nrf2 activator that modulates mitochondrial function in neurons by regulating DHRS3-Nrf2 interaction after ischemic stroke” (Theranostics, 2026)
# Columns and labels:
# [1] = Microsomal metabolic stability, rat; type: in vitro ADME; conditions: rat liver microsomes
# Protocol: (§1) The liver microsomal incubation system comprised human, dog, or rat liver microsomal protein (0.75 mg/mL), nicotinamide adenine dinucleotide phosphate (NADPH) generation system, potassium phosphate buffer (0.1 M, pH 7.4), substrate, and inhibitor. The assay was conducted by first preparing a potassium phosphate buffer. Compounds and liver microsomes were then diluted and pre-incubated at 37 °C before initiating the reaction with NADPH. Aliquots were quenched with acetonitrile containing internal standard at specified time points. After sample processing (shaking and centrifugation), the supernatants were analyzed by LC-MS/MS to determine metabolic stability.
# [2] = system: SH-SY5Y cells and primary cortical neuron cells; test: Mitochondrial function in the OGD/R model (JC-1, Calcein-AM, DCFH-DA, ATP); type: cell-based
# Protocol: Experiment two: mitochondrial ATP levels were assayed using ATP assay kit (S0027, Beyotime, China) according to the manufacturer's protocols. The cells were cultured by placing them in six-well plates as described in the "Cell culture and drug administration in vitro" method. Subsequently, 200 uL of lysate was added into the hole and supernatants were collected (4 °C, 12000 g, 5 min). 100 uL supernatants cultured with 100 µL probe of ATP, and the RLU was measured by a luminometer.
# Assay of ROS generation production: cellular ROS were examined using an ROS Assay Kit (S0033S, Beyotime, China). Cells were incubated with DCFH-DA for 20 min at 37 °C in the dark, and then washed three times with PBS. The fluorescence intensity was measured by Laser Scanning Confocal Microscope (CLSM; ZEISS LSM 800, Germany).
# Mitochondrial membrane potential (MMP) and MPTP assessment: MMP changes were measured by a mitochondrial membrane potential assay kit with JC-1 (C2003S, Beyotime, China) according to the manufacturer's instructions. Higher ratios of red to green fluorescence were correlated with higher mitochondrial membrane polarization. In addition, MPTP opening was assessed by Calcein-AM assays (Y237214-1mg, Beyotime, China). […] For detailed instructions, please refer to the manual.
# [3] = In vitro hepatic microsomal stability, overall statement; type: in vitro ADME, human, dog, rat
# Protocol: as §1
# [4] = Metabolite identification in human liver microsomes; type: in vitro ADME
# Protocol: In vitro identification of metabolites was performed by incubating Cpd.51 (parent compound, final concentration 10 µM) with human liver microsomes (final protein concentration, 1 mg/mL) at 37 °C in a 100 mM potassium phosphate buffer containing 5 mM MgCl2. Samples were quenched with methanol and analyzed using a Waters G2-XS Q-Tof UPLC-MS system employing positive-ion and negative-ion electrospray ionization. The LC-MS extract ion chromatograms to identify the major putative metabolites. MS/MS spectra of Cpd.51 and its metabolites were acquired during both positive-ion and negative-ion electrospray. The potential chemical structures of the metabolites were inferred from their MS/MS spectra and retention times. Metabolic pathways of Cpd.51 in human liver microsomes were subsequently proposed. […]
# The objective of this study is to identify major metabolites of Cpd.51 generated in human […]
# In vitro metabolites identification was conducted after incubating Cpd.51 (parent compound, final concentration 10 µM) with human liver microsomes (final protein concentration, 1 mg/mL) at 37 °C in 100 mM potassium phosphate buffer containing 5 mM MgCl2 in the presence of NADPH or without NADPH. The samples taken at 0 minute (min) and 5 min were quenched by methanol and analyzed using Waters G2-XS Q-Tof UPLC-MS system with positive-ion and negative-ion electrospray ionization. […]
# SH-SY5Y cells = test: Cytotoxicity in SH-SY5Y cells, 24 h incubation; type: cell-based; conditions: Homo sapiens
# [5] = Microsomal metabolic stability, dog; type: in vitro ADME; conditions: dog liver microsomes
# Protocol: as §1
smiles,measurement,setting,value
CC1(C)CCC2(C(=O)NO)CCC3(C)C(C(=O)C=C4C5(C)C=C(C#N)C(=O)C(C)(C)C5CCC43C)C2C1 (centres unmarked) [Cpd.51],"Remainig (%, t = 60 min)",[1],51.1%
same,CLint scaled,"[1]; rat, pH 7.4",41 mL/min/kg
same,half-life,"[1]; rat, pH 7.4",60.8 min
same,mitochondrial membrane potential (JC-1),[2],enhanced mitochondrial membrane potential
same,"mitochondrial permeability (MPTP, Calcein AM)",[2],reduced mitochondrial permeability
same,ATP production,[2]; SH-SY5Y cells,increased ATP production
same,reactive oxygen species production (DCFH-DA),[2]; SH-SY5Y cells,decreased reactive oxygen species production
same,metabolic stability in microsomes,[3],moderate metabolic stability
same,number of major metabolites,[4]; human liver microsomes,10
same,"Relative UV abundance (5 min), relative to parent in T0 sample","[4]; human liver microsomes with NADPH, 10 µM Cpd.51, 5 min, UV 250-260 nm",54.06%
same,IC50,SH-SY5Y cells,1.98 µM
same,"Remainig (%, t = 60 min)",[5],32.9%
same,CLint scaled,"[5]; dog, pH 7.4",51 mL/min/kg
same,half-life,"[5]; dog, pH 7.4",39.2 min
